This data set is described as follows: Solubility of free imiquimod and imiquimod-oleic acid complex (ImO) in water. The format is physicochemical. As to conditions: for solubility: highest/lowest concentration examined. On the procedure: Nanoparticles (ImiMB) were synthesized using a methylene blue-oleic acid complex (MBO) and Pluronic F-127 with imiquimod in a free imiquimod state without modifying imiquimod with oleic acid. […] Subsequently, 1 ml of distilled water (DW) was used instead of ImO complex solution in the rehydration step of the thin film (FIG. 2).
Therefore, in the present invention, imiquimod was modified with an organic acid to form a cationic adjuvant-organic acid complex for solubility improvement and high-content loading, and then nanoparticles were prepared using the cationic adjuvant-organic acid complex.

Where two headings read alike, the source gives them in different places.

These results are taken from US20260306632A1, “NANOPARTICLES FOR PHOTOIMMUNE THERAPY COMPRISING PHOTOSENSITIZER AND ADJUVANT, AND USAGE THEREOF” (KOREA INSTITUTE OF SCIENCE AND TECHNOLOGY, priority 2022, published 2026).

As for imiquimod-oleic acid complex, the “solubility in water (in words)” value is on record as “particle formation occurred well even at a high concentration of 5.0 mg/ml, maintaining a transparent solution form” and the solubility (in general, the concentration that dissolves in the medium under given conditions) was ≥ 5000 µg/mL.
`CC(C)Cn1cnc2c(N)nc3ccccc3c21` [free imiquimod, imiquimod]: the “solubility in water (in words)” value is “not soluble in water”. Moreover, the solubility (read-out: solubility) was < 100 µg/mL.
